# Reference: patent EP4603105A1, “PHARMACEUTICAL COMPOSITION CONTAINING CYCLIC COMPOUND HAVING SELECTIVE KRAS INHIBITORY EFFECT AGAINST HRAS AND NRAS” (CHUGAI SEIYAKU KABUSHIKI KAISHA, priority 2022, dated 2024)
# pIC50, pKd: −log10 of the molar value.
# Columns and labels:
# [1] = system: human lung cancer strain NCI-H441; test: NCI-H441 cell proliferation inhibitory activity (CellTiter-Glo, 4 days); type: cell-based; settings: 50% proliferation inhibitory concentration, four days, read-out: NCl-H441 IC50
# In short: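 Readout: […] after the ATP-based reagent. Compound: serial dilutions in dimethyl sulfoxide.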
# [2] = biological target: HRAS wild-type protein (Homo sapiens, UniProt P01112); test: Binding to HRAS by surface plasmon resonance (SPR), KD and KD ratio to KRAS; settings: ratio of KD with respect to HRAS wild-type protein to KD with respect to KRAS
# In short: (§1)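 GDP-loaded biotinylated Avi-tag RAS proteins (E. coli-expressed) captured on a Biotin CAPture chip at ~100–300 RU; single-cycle kinetics at 30°C, 100 µL/min, 75 s injections of rising compound concentrations. HBS pH 7.4 running buffer with 1 mM DTT, 10 mM MgCl2, 10 µM GDP, 4% DMSO. KD from 1:1 binding fit.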
# [3] = biological target: GDP-bound NRAS wild-type protein (Homo sapiens, UniProt P01111); test: Binding to NRAS by surface plasmon resonance (SPR), KD and KD ratio to KRAS; settings: ratio of KD with respect to GDP-bound NRAS wild-type protein to KD with respect to KRAS
# In short: as §1
# [4] = biological target: GDP-bound KRAS wild-type protein (Homo sapiens, UniProt P01116); test: Binding to KRAS by surface plasmon resonance (SPR), dissociation constant KD; settings: Single Cycle Kinetics, 1:1 binding model
# In short: as §1
# Chain of GDP-bound KRAS wild-type protein (P01116 1-188 isoform P01116-2): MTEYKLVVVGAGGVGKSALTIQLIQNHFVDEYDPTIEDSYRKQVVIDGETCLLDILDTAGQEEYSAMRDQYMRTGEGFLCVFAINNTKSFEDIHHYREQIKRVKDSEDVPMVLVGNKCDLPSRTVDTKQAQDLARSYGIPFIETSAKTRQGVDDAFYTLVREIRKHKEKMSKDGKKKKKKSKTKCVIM
# Chain of GDP-bound NRAS wild-type protein (P01111 whole entry): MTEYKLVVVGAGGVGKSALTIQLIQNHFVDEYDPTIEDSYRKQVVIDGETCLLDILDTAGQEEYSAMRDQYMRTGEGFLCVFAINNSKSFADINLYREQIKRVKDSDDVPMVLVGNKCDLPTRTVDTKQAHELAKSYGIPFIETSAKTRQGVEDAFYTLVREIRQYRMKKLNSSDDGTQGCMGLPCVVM
# Chain of HRAS wild-type protein (P01112 whole entry): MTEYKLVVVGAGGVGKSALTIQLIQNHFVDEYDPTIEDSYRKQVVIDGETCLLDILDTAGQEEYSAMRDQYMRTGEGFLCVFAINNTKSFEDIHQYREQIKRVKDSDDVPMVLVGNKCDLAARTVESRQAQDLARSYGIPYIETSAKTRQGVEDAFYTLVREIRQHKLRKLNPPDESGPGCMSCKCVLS
Compound,pIC50 [1],pKd [4],HRAS /KRAS [2],NRAS /KRAS [3]
CCO[C@@H]1C[C@H]2C(=O)NC3(CCC3)C(=O)N(C)[C@@H](C(CC)CC)C(=O)N(C)[C@H](C(=O)N(C)C)CC(=O)N(C)[C@@H](C)C(=O)N[C@@H]([C@@H](C)CC)C(=O)N(C)CC(=O)N(C)[C@H]3C/C=C\CCN(C3=O)[C@@H](Cc3ccc(C(F)(F)F)cc3)C(=O)N(C)CC(=O)N[C@@H](CCc3cc(F)c(C(F)(F)F)c(F)c3)C(=O)N2C1 [PP1199],7.41,9.77,A (a compound having 10 or more and less than 20 is denoted as A),A (a compound having 10 or more and less than 20 is denoted as A)
CCO[C@@H]1C[C@H]2C(=O)NC3(CCC3)C(=O)N(C)[C@@H](C(CC)CC)C(=O)N(C)[C@H](C(=O)N(C)C)CC(=O)N(C)[C@@H](CC(C)C)C(=O)N[C@@H]([C@@H](C)CC)C(=O)N(C)CC(=O)N(C)[C@H]3C/C=C\CCN(C3=O)[C@@H](Cc3ccc(C(F)(F)F)cc3)C(=O)N(C)CC(=O)N[C@@H](CCc3cc(F)c(C(F)(F)F)c(F)c3)C(=O)N2C1 [PP1201],8.01,9.77,A (a compound having 10 or more and less than 20 is denoted as A),AA (a compound having 20 or more is denoted as AA)
CCO[C@@H]1C[C@H]2C(=O)NC3(CCC3)C(=O)N(C)[C@@H](C(CC)CC)C(=O)N(C)[C@H](C(=O)N(C)C)CC(=O)N(C)[C@@H](CC)C(=O)N[C@@H]([C@@H](C)CC)C(=O)N(C)CC(=O)N(C)[C@H]3C/C=C\CCN(C3=O)[C@@H](Cc3ccc(C(F)(F)F)cc3)C(=O)N(C)CC(=O)N[C@@H](CCc3ccc(C(F)(F)F)c(OC)c3)C(=O)N2C1 [PP1207],7.52,9.68,A (a compound having 10 or more and less than 20 is denoted as A),AA (a compound having 20 or more is denoted as AA)
CCO[C@@H]1C[C@H]2C(=O)NC3(CCC3)C(=O)N(C)[C@@H](C(CC)CC)C(=O)N(C)[C@H](C(=O)N(C)C)CC(=O)N(C)[C@@H](CC3CCCC3)C(=O)N[C@@H]([C@@H](C)CC)C(=O)N(C)CC(=O)N(C)[C@H]3C/C=C\CCN(C3=O)[C@@H](Cc3ccc(C(F)(F)F)cc3)C(=O)N(C)CC(=O)N[C@@H](CCc3ccc(C(F)(F)F)c(OC)c3)C(=O)N2C1 [PP1212],7.45,9.55,A (a compound having 10 or more and less than 20 is denoted as A),AA (a compound having 20 or more is denoted as AA)
CCO[C@@H]1C[C@H]2C(=O)NC3(CCC3)C(=O)N(C)[C@@H](C(CC)CC)C(=O)N(C)[C@H](C(=O)N(C)C)CC(=O)N(C)[C@@H](C)C(=O)N[C@@H]([C@@H](C)CC)C(=O)N(C)CC(=O)N(C)[C@H]3C/C=C\CCN(C3=O)[C@@H](Cc3ccc(C(F)(F)F)cc3)C(=O)N(C)CC(=O)N[C@@H](CCc3ccc(Cl)c(Cl)c3)C(=O)N2C1 [PP1214],7.03,9.47,A (a compound having 10 or more and less than 20 is denoted as A),AA (a compound having 20 or more is denoted as AA)
CCO[C@@H]1C[C@H]2C(=O)NC3(CCC3)C(=O)N(C)[C@@H](C(CC)CC)C(=O)N(C)[C@H](C(=O)N(C)C)CC(=O)N(C)[C@@H](CC)C(=O)N[C@@H]([C@@H](C)CC)C(=O)N(C)CC(=O)N(C)[C@H]3C/C=C\CCN(C3=O)[C@@H](Cc3ccc(C(F)(F)F)cc3)C(=O)N(C)CC(=O)N[C@@H](CCc3ccc(Cl)c(Cl)c3)C(=O)N2C1 [PP1215],7.48,9.38,A (a compound having 10 or more and less than 20 is denoted as A),AA (a compound having 20 or more is denoted as AA)
CCO[C@@H]1C[C@H]2C(=O)NC3(CCC3)C(=O)N(C)[C@@H](C(CC)CC)C(=O)N(C)[C@H](C(=O)N(C)C)CC(=O)N(C)[C@@H](CC(C)C)C(=O)N[C@@H]([C@@H](C)CC)C(=O)N(C)CC(=O)N(C)[C@H]3C/C=C\CCN(C3=O)[C@@H](Cc3ccc(C(F)(F)F)cc3)C(=O)N(C)CC(=O)N[C@@H](CCc3ccc(Cl)c(Cl)c3)C(=O)N2C1 [PP1217],7.75,9.32,A (a compound having 10 or more and less than 20 is denoted as A),AA (a compound having 20 or more is denoted as AA)
CCO[C@@H]1C[C@H]2C(=O)NC3(CCC3)C(=O)N(C)[C@@H](C(CC)CC)C(=O)N(C)[C@H](C(=O)N(C)C)CC(=O)N(C)[C@@H](CC)C(=O)N[C@@H]([C@@H](C)CC)C(=O)N(C)CC(=O)N(C)[C@H]3C/C=C\CCN(C3=O)[C@@H](Cc3ccc(C(F)(F)F)cc3)C(=O)N(C)CC(=O)N[C@@H](CCc3ccc4sccc4c3)C(=O)N2C1 [PP1223],6.93,8.92,A (a compound having 10 or more and less than 20 is denoted as A),AA (a compound having 20 or more is denoted as AA)
CCO[C@@H]1C[C@H]2C(=O)NC3(CCC3)C(=O)N(C)[C@@H](C(CC)CC)C(=O)N(C)[C@H](C(=O)N(C)C)CC(=O)N(C)[C@@H](CC(C)C)C(=O)N[C@@H]([C@@H](C)CC)C(=O)N(C)CC(=O)N(C)[C@H]3C/C=C\CCN(C3=O)[C@@H](Cc3ccc(C(F)(F)F)cc3)C(=O)N(C)CC(=O)N[C@@H](CCc3ccc4sccc4c3)C(=O)N2C1 [PP1225],7.03,8.96,A (a compound having 10 or more and less than 20 is denoted as A),AA (a compound having 20 or more is denoted as AA)

# Second part, led by results:
pIC50 [1],pKd [4],Compound,HRAS /KRAS [2],NRAS /KRAS [3]
7.72,9.70,CCO[C@@H]1C[C@H]2C(=O)NC3(CCC3)C(=O)N(C)[C@@H](C(CC)CC)C(=O)N(C)[C@H](C(=O)N(C)C)CC(=O)N(C)[C@@H](CC)C(=O)N[C@@H]([C@@H](C)CC)C(=O)N(C)CC(=O)N(C)[C@H]3C/C=C\CCN(C3=O)[C@@H](Cc3ccc(C(F)(F)F)cc3)C(=O)N(C)CC(=O)N[C@@H](CCc3cc(F)c(C(F)(F)F)c(F)c3)C(=O)N2C1 [PP1200],A (a compound having 10 or more and less than 20 is denoted as A),AA (a compound having 20 or more is denoted as AA)
7.61,9.77,CCC[C@H]1C(=O)N[C@@H]([C@@H](C)CC)C(=O)N(C)CC(=O)N(C)[C@H]2C/C=C\CCN(C2=O)[C@@H](Cc2ccc(C(F)(F)F)cc2)C(=O)N(C)CC(=O)N[C@@H](CCc2ccc(C(F)(F)F)c(OC)c2)C(=O)N2C[C@H](OCC)C[C@H]2C(=O)NC2(CCC2)C(=O)N(C)[C@@H](C(CC)CC)C(=O)N(C)[C@H](C(=O)N(C)C)CC(=O)N1C [PP1208],A (a compound having 10 or more and less than 20 is denoted as A),AA (a compound having 20 or more is denoted as AA)
7.57,9.57,CCO[C@@H]1C[C@H]2C(=O)NC3(CCC3)C(=O)N(C)[C@@H](C(CC)CC)C(=O)N(C)[C@H](C(=O)N(C)C)CC(=O)N(C)[C@@H](CC3CC3)C(=O)N[C@@H]([C@@H](C)CC)C(=O)N(C)CC(=O)N(C)[C@H]3C/C=C\CCN(C3=O)[C@@H](Cc3ccc(C(F)(F)F)cc3)C(=O)N(C)CC(=O)N[C@@H](CCc3ccc(C(F)(F)F)c(OC)c3)C(=O)N2C1 [PP1211],B (a compound having 3 or more and less than 10 is denoted as B),A (a compound having 10 or more and less than 20 is denoted as A)
7.17,9.06,CCCCCC[C@H]1C(=O)N[C@@H]([C@@H](C)CC)C(=O)N(C)CC(=O)N(C)[C@H]2C/C=C\CCN(C2=O)[C@@H](Cc2ccc(C(F)(F)F)cc2)C(=O)N(C)CC(=O)N[C@@H](CCc2ccc(Cl)c(Cl)c2)C(=O)N2C[C@H](OCC)C[C@H]2C(=O)NC2(CCC2)C(=O)N(C)[C@@H](C(CC)CC)C(=O)N(C)[C@H](C(=O)N(C)C)CC(=O)N1C [PP1218],A (a compound having 10 or more and less than 20 is denoted as A),AA (a compound having 20 or more is denoted as AA)
7.67,9.46,CCO[C@@H]1C[C@H]2C(=O)NC3(CCC3)C(=O)N(C)[C@@H](C(CC)CC)C(=O)N(C)[C@H](C(=O)N(C)C)CC(=O)N(C)[C@@H](CC3CC3)C(=O)N[C@@H]([C@@H](C)CC)C(=O)N(C)CC(=O)N(C)[C@H]3C/C=C\CCN(C3=O)[C@@H](Cc3ccc(C(F)(F)F)cc3)C(=O)N(C)CC(=O)N[C@@H](CCc3ccc(Cl)c(Cl)c3)C(=O)N2C1 [PP1219],A (a compound having 10 or more and less than 20 is denoted as A),AA (a compound having 20 or more is denoted as AA)
7.39,9.40,CCO[C@@H]1C[C@H]2C(=O)NC3(CCC3)C(=O)N(C)[C@@H](C(CC)CC)C(=O)N(C)[C@H](C(=O)N(C)C)CC(=O)N(C)[C@@H](COC)C(=O)N[C@@H]([C@@H](C)CC)C(=O)N(C)CC(=O)N(C)[C@H]3C/C=C\CCN(C3=O)[C@@H](Cc3ccc(C(F)(F)F)cc3)C(=O)N(C)CC(=O)N[C@@H](CCc3ccc(Cl)c(Cl)c3)C(=O)N2C1 [PP1221],A (a compound having 10 or more and less than 20 is denoted as A),AA (a compound having 20 or more is denoted as AA)
6.52,8.92,CCO[C@@H]1C[C@H]2C(=O)NC3(CCC3)C(=O)N(C)[C@@H](C(CC)CC)C(=O)N(C)[C@H](C(=O)N(C)C)CC(=O)N(C)[C@@H](C)C(=O)N[C@@H]([C@@H](C)CC)C(=O)N(C)CC(=O)N(C)[C@H]3C/C=C\CCN(C3=O)[C@@H](Cc3ccc(C(F)(F)F)cc3)C(=O)N(C)CC(=O)N[C@@H](CCc3ccc4sccc4c3)C(=O)N2C1 [PP1222],A (a compound having 10 or more and less than 20 is denoted as A),A (a compound having 10 or more and less than 20 is denoted as A)
